Laboratory results from ChEMBL document CHEMBL1938289, “Facile synthesis of tetracyclic azepine and oxazocine derivatives and their potential as MAPKAP-K2 (MK2) inhibitors” (Bioorg Med Chem Lett, 2012).
Converted amounts (≈) assume the structure as drawn. The source made the active and inactive calls. The rule behind the calls is not given here.

Legend:
[1] = biological target: T1, MAP kinase-activated protein kinase 2 (Homo sapiens, UniProt P49137); test: Inhibition of MK2 using TAMRA-labeled peptide as substrate pre-incubated for 30 mins prior substrate addition measured after 30 mins incubation in dark using fluorescence polarization assay
Target sequence in this assay (P49137 whole entry): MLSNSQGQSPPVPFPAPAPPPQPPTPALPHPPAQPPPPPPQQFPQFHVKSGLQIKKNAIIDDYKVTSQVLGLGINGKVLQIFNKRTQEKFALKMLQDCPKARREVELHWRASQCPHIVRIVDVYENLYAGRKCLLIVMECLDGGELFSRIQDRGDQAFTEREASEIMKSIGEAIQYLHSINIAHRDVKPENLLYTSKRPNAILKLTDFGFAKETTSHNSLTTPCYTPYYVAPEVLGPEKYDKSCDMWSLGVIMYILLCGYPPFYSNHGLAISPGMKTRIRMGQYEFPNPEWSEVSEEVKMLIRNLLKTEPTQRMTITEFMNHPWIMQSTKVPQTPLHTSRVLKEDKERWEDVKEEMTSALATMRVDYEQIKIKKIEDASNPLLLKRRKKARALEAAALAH

[2] = biological target: T1, MAP kinase-activated protein kinase 2; test: Inhibition of MK2-mediated HSP27 phosphorylation at Ser78 in LPS-stimulated human THP-1 cells pre-incubated for 60 mins before LPS treatment measured after 60 mins; type: cell-based
Target sequence in this assay (P49137 whole entry): as above

[3] = Kinetic solubility of the compound at pH 7.4; conditions: buffer
[4] = biological target: T1, MAP kinase-activated protein kinase 2; test: Noncompetitive inhibition of MK2 using TAMRA-labeled peptide as substrate
Target sequence in this assay (P49137 whole entry, looked up): as the sequence (P49137 whole entry) above

IC50 [1] [nM] | EC50 [2] [nM] | solubility kinetic [3] [µM] | inhibition [4] | SMILES
18 |  | 38 (≈ 16.5 µg/mL) | Active | Clc1ccc(-c2cc3c(o2)-c2nccn2-c2ccc(N4CCNCC4)cc2OC3)cc1
9.3 | 2100 | 10 (≈ 4.18 µg/mL) |  | Clc1ccc(-c2cc3c(o2)-c2nncn2-c2ccc(N4CCNCC4)cc2C3)cc1
7 | 1500 | 20 (≈ 8.34 µg/mL) |  | Clc1ccc(-c2cc3c(o2)-c2nccn2-c2ccc(N4CCNCC4)cc2C3)cc1
110 |  |  |  | O=C1Nc2ccc(N3CCNCC3)cc2OCc2cc(-c3ccc(Cl)cc3)oc21

The next lines start with the compound.

SMILES | IC50 [1] [nM] | EC50 [2] [nM] | solubility kinetic [3] [µM] | inhibition [4]
Cc1cnc2n1-c1ccc(N3CCNCC3)cc1Cc1cc(-c3ccc(Cl)cc3)oc1-2 | 9.2 | 2500 |  | 
Fc1ccc(-c2cc3c(o2)-c2nncn2-c2ccc(N4CCNCC4)cc2C3)cc1 | 15 |  | 33 (≈ 13.2 µg/mL) | 
N#Cc1ccc(-c2cc3c(o2)-c2nccn2-c2ccc(N4CCNCC4)cc2C3)cc1 | 2.9 | 260 | < 16 | 
Cc1nnc2n1-c1ccc(N3CCNCC3)cc1Cc1cc(-c3ccc(Cl)cc3)oc1-2 | 880 |  | 10 (≈ 4.32 µg/mL) | 
O=C(c1ccc(-c2ccc(Cl)cc2)o1)N(Cc1ccccn1)c1ccc(N2CCNCC2)cc1 |  |  | > 200 | 
N#Cc1ccc(-c2cc3c(o2)-c2nncn2-c2ccc(N4CCNCC4)cc2C3)cc1 | 3.8 | 260 | 16 (≈ 6.54 µg/mL) | Active
